Results reported in ChEMBL document CHEMBL2074496, “Altered drug disposition of the platelet activating factor antagonist apafant in mdr1a knockout mice” (Eur J Pharm Sci, 2002).

What was measured:
[1] = target: ATP-dependent translocase ABCB1 (Homo sapiens, UniProt P08183); test: TP_TRANSPORTER: transepithelial transport (basal to apical) in Caco-2 cells; format: functional, cell-based
[2] = target: ATP-dependent translocase ABCB1 (Mus musculus, UniProt P21447); test: TP_TRANSPORTER: increase in brain concentration in mdr1a(-/-) mouse; format: functional, organism-based; conditions: in vivo
Sequence of ATP-dependent translocase ABCB1 (Mus musculus, UniProt P21447) (P21447 whole entry): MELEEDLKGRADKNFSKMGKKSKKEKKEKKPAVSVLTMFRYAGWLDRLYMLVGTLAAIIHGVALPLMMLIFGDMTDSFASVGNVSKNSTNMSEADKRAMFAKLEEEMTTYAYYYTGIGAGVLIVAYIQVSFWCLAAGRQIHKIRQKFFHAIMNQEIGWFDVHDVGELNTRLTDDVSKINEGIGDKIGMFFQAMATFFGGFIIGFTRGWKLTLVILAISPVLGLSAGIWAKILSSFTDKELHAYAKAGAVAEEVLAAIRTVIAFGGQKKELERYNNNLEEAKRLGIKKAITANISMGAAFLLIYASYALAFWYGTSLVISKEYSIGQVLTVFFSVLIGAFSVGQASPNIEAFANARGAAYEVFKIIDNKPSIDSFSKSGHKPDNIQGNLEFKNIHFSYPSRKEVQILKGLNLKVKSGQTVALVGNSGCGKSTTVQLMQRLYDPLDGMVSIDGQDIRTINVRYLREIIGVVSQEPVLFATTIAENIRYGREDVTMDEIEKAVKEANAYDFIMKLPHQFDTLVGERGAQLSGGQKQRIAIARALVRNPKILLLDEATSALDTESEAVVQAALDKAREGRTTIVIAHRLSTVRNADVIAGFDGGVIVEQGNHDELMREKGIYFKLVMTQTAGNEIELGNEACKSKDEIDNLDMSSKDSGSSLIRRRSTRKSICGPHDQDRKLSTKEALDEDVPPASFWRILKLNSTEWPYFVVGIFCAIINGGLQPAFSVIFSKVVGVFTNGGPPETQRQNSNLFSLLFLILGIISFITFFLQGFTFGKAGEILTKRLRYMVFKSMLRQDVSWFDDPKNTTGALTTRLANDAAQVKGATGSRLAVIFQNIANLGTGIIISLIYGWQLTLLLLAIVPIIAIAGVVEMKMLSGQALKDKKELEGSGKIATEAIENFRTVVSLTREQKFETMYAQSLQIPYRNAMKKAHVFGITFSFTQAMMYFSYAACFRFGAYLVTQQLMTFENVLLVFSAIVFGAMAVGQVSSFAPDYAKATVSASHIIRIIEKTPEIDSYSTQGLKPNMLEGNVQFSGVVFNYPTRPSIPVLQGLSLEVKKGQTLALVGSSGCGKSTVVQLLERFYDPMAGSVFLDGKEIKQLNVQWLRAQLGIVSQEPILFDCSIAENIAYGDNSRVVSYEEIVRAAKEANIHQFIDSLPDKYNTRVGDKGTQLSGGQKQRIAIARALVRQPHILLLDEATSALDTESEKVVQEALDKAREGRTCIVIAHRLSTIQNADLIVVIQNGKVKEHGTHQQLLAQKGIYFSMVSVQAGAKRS

Sequence of ATP-dependent translocase ABCB1 (Homo sapiens, UniProt P08183) (P08183 whole entry): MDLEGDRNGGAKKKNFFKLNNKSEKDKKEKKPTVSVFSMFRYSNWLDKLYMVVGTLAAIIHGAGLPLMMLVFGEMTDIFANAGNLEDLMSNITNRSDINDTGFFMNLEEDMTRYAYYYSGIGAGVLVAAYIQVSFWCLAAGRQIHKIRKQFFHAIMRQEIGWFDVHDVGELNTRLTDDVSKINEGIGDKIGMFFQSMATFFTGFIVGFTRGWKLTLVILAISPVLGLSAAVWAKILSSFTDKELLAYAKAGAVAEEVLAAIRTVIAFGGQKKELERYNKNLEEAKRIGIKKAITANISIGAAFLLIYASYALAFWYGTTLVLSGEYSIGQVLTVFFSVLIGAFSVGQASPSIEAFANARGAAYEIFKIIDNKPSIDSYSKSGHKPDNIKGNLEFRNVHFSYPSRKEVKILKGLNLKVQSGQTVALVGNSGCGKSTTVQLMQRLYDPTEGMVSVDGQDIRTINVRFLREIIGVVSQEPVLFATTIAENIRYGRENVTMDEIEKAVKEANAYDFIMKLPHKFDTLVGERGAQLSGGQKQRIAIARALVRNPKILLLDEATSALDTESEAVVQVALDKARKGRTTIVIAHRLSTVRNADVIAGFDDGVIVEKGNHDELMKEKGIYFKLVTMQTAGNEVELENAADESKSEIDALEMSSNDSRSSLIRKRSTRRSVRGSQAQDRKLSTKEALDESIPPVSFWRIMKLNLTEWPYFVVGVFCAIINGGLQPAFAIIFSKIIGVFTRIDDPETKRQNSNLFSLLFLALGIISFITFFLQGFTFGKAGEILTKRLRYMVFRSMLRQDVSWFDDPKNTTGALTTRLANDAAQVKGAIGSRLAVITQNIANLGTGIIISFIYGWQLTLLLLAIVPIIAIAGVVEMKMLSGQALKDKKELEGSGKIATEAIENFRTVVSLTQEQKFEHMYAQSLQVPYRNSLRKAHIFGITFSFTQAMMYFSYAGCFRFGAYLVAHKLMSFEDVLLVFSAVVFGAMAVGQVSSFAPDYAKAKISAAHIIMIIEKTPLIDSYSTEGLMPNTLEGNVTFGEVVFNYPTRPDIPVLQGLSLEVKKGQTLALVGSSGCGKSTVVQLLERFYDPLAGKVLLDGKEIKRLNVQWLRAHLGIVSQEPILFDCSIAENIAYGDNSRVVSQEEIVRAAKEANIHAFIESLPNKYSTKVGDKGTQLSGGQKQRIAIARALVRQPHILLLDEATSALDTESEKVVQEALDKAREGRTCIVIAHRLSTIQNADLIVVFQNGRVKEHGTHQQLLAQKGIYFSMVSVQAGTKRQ

With `Cc1nnc2n1-c1sc(CCC(=O)N3CCOCC3)cc1C(c1ccccc1Cl)=NC2` [APAFANT] the Activity [1] was “substrate [+]” and the Activity [2] was “substrate [+]”.
